Reference: PubChem BioAssay (NCI)
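GI50 marks 50% less growth. The concentration for full growth arrest is given as TGI.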

Experiments:
Experiment in all cases: NCI tumour cell line growth inhibition, 384-well format
786-0 renal = system: 786-0 renal
A498 renal = system: A498 renal
A549 NSCLC = system: A549 NSCLC
ACHN renal = system: ACHN renal
BT-549 breast = system: BT-549 breast
CAKI-1 renal = system: CAKI-1 renal
CCRF-CEM leukemia = system: CCRF-CEM leukemia
DU-145 prostate = system: DU-145 prostate
EKVX NSCLC = system: EKVX NSCLC
HCT-116 colon = system: HCT-116 colon
HCT-15 colon = system: HCT-15 colon
HL-60(TB) leukemia = system: HL-60(TB) leukemia
HOP-62 NSCLC = system: HOP-62 NSCLC
HOP-92 NSCLC = system: HOP-92 NSCLC
HS 578T breast = system: HS 578T breast
HT29 colon = system: HT29 colon
IGROV1 ovarian = system: IGROV1 ovarian
K-562 leukemia = system: K-562 leukemia
KM12 colon = system: KM12 colon
LOX IMVI melanoma = system: LOX IMVI melanoma
M14 melanoma = system: M14 melanoma
MALME-3M melanoma = system: MALME-3M melanoma
MCF7 breast = system: MCF7 breast
MDA-MB-231 breast = system: MDA-MB-231 breast
MDA-MB-435 melanoma = system: MDA-MB-435 melanoma
MDA-MB-468 breast = system: MDA-MB-468 breast
MOLT-4 leukemia = system: MOLT-4 leukemia
NCI-H226 lung = system: NCI-H226 lung
NCI-H23 lung = system: NCI-H23 lung
NCI-H322M lung = system: NCI-H322M lung
NCI-H522 lung = system: NCI-H522 lung
NCI/ADR-RES ovarian = system: NCI/ADR-RES ovarian
OVCAR-3 ovarian = system: OVCAR-3 ovarian
OVCAR-4 ovarian = system: OVCAR-4 ovarian
OVCAR-5 ovarian = system: OVCAR-5 ovarian
OVCAR-8 ovarian = system: OVCAR-8 ovarian
PC-3 prostate = system: PC-3 prostate
RPMI-8226 leukemia = system: RPMI-8226 leukemia
RXF 393 renal = system: RXF 393 renal
SF-268 CNS = system: SF-268 CNS
SF-295 CNS = system: SF-295 CNS
SF-539 CNS = system: SF-539 CNS
SK-MEL-28 melanoma = system: SK-MEL-28 melanoma
SK-OV-3 ovarian = system: SK-OV-3 ovarian
SN12C renal = system: SN12C renal
SNB-19 CNS = system: SNB-19 CNS
SNB-75 CNS = system: SNB-75 CNS
SW-620 colon = system: SW-620 colon
T-47D breast = system: T-47D breast
TK-10 renal = system: TK-10 renal
U251 glioblastoma = system: U251 glioblastoma
UACC-257 melanoma = system: UACC-257 melanoma
UACC-62 melanoma = system: UACC-62 melanoma
UO-31 renal = system: UO-31 renal

Nc1nc(Cl)nc2c1ncn2C1CC(O)C(CO)O1 (stereo not drawn)
GI50 ([…]-0 renal): 1.28 µM
TGI (786-0 renal): > 100 µM
GI50 (A498 renal): 0.701 µM
TGI (A498 renal): > 100 µM
GI50 (A549 NSCLC): 0.434 µM
TGI (A549 NSCLC): > 100 µM
GI50 (ACHN renal): 0.923 µM
TGI (ACHN renal): 5.14 µM
GI50 (BT-549 breast): 0.184 µM
TGI (BT-549 breast): 0.977 µM
GI50 (CAKI-1 renal): 0.353 µM
TGI (CAKI-1 renal): > 100 µM
GI50 (CCRF-CEM leukemia): 0.0812 µM
TGI (CCRF-CEM leukemia): 0.206 µM
GI50 (DU-145 prostate): 0.808 µM
TGI (DU-145 prostate): > 100 µM
GI50 (EKVX NSCLC): > 100 µM
TGI (EKVX NSCLC): > 100 µM
GI50 (HCT-116 colon): 0.27 µM
TGI (HCT-116 colon): > 100 µM
GI50 (HCT-15 colon): 0.395 µM
TGI (HCT-15 colon): > 100 µM
GI50 (HL-60(TB) leukemia): 0.0353 µM
TGI (HL-60(TB) leukemia): 0.108 µM
GI50 (HOP-62 NSCLC): 0.236 µM
TGI (HOP-62 NSCLC): 0.969 µM
GI50 (HOP-92 NSCLC): 9.31 µM
TGI (HOP-92 NSCLC): > 100 µM
GI50 (HS 578T breast): 70.7 µM
TGI (HS 578T breast): > 100 µM
GI50 (HT29 colon): 1.37 µM
TGI (HT29 colon): > 100 µM
GI50 (IGROV1 ovarian): 14.7 µM
TGI (IGROV1 ovarian): > 100 µM
GI50 (K-562 leukemia): 0.428 µM
TGI (K-562 leukemia): > 100 µM
GI50 (KM12 colon): 0.994 µM
TGI (KM12 colon): > 100 µM
GI50 (LOX IMVI melanoma): 1.11 µM
TGI (LOX IMVI melanoma): 3.8 µM
GI50 (M14 melanoma): 0.108 µM
TGI (M14 melanoma): 0.448 µM
GI50 (MALME-3M melanoma): 0.308 µM
TGI (MALME-3M melanoma): > 100 µM
GI50 (MCF7 breast): 0.65 µM
TGI (MCF7 breast): > 100 µM
GI50 (MDA-MB-231 breast): 0.481 µM
TGI (MDA-MB-231 breast): > 100 µM
GI50 (MDA-MB-435 melanoma): 0.743 µM
TGI (MDA-MB-435 melanoma): > 100 µM
GI50 (MDA-MB-468 breast): 3.03 µM
TGI (MDA-MB-468 breast): 16.2 µM
GI50 (MOLT-4 leukemia): 0.0229 µM
TGI (MOLT-4 leukemia): 0.0596 µM
GI50 (NCI-H226 lung): 3.58 µM
TGI (NCI-H226 lung): 18.2 µM
GI50 (NCI-H23 lung): 0.212 µM
TGI (NCI-H23 lung): 0.481 µM
GI50 (NCI-H322M lung): 37.5 µM
TGI (NCI-H322M lung): > 100 µM
GI50 (NCI-H522 lung): 0.83 µM
TGI (NCI-H522 lung): > 100 µM
GI50 (NCI/ADR-RES ovarian): 0.135 µM
TGI (NCI/ADR-RES ovarian): > 100 µM
GI50 (OVCAR-3 ovarian): 2.09 µM
TGI (OVCAR-3 ovarian): > 100 µM
GI50 (OVCAR-4 ovarian): > 100 µM
TGI (OVCAR-4 ovarian): > 100 µM
GI50 (OVCAR-5 ovarian): 0.764 µM
TGI (OVCAR-5 ovarian): > 100 µM
GI50 (OVCAR-8 ovarian): 0.0356 µM
TGI (OVCAR-8 ovarian): > 100 µM
GI50 (PC-3 prostate): > 100 µM
TGI (PC-3 prostate): > 100 µM
GI50 (RPMI-8226 leukemia): 0.372 µM
TGI (RPMI-8226 leukemia): 1.61 µM
GI50 (RXF 393 renal): 47.8 µM
TGI (RXF 393 renal): > 100 µM
GI50 (SF-268 CNS): 2.89 µM
TGI (SF-268 CNS): 19.8 µM
GI50 (SF-295 CNS): 11.2 µM
TGI (SF-295 CNS): 34.1 µM
GI50 (SF-539 CNS): 2.63 µM
TGI (SF-539 CNS): 12.2 µM
GI50 (SK-MEL-28 melanoma): 0.552 µM
TGI (SK-MEL-28 melanoma): > 100 µM
GI50 (SK-OV-3 ovarian): 3.01 µM
TGI (SK-OV-3 ovarian): > 100 µM
GI50 (SN12C renal): 0.122 µM
TGI (SN12C renal): 0.926 µM
GI50 (SNB-19 CNS): 0.738 µM
TGI (SNB-19 CNS): > 100 µM
GI50 (SNB-75 CNS): 19.9 µM
TGI (SNB-75 CNS): 87.8 µM
GI50 (SW-620 colon): 0.712 µM
TGI (SW-620 colon): > 100 µM
GI50 (T-47D breast): 6.73 µM
TGI (T-47D breast): > 100 µM
GI50 (TK-10 renal): > 100 µM
TGI (TK-10 renal): > 100 µM
GI50 (U251 glioblastoma): 0.825 µM
TGI (U251 glioblastoma): 15.8 µM
GI50 (UACC-257 melanoma): 1.39 µM
TGI (UACC-257 melanoma): > 100 µM
GI50 (UACC-62 melanoma): 0.177 µM
TGI (UACC-62 melanoma): 0.501 µM
GI50 (UO-31 renal): 0.372 µM
TGI (UO-31 renal): 3.85 µM
